{"source": "patent US6350782B1", "about": "“Use of basic amino acids derivatives for lowering ceramide levels” (Sigma-Tau Industrie Farmaceutiche Riunite S.p.A., priority 1995, dated 2002)", "key": {"[1]": {"system": "Peripheral blood lymphocytes", "experiment": "Ceramide in anti-Fas antibody stimulated peripheral blood lymphocytes (DAG kinase assay)", "type": "cell-based", "details": "for Ceramide: 30 min at 37° C., then anti-Fas antibody 30 min, Control 20, Control + anti-Fas antibody 81.6; for Effect on synthesis of ceramide in vitro: anti-Fas stimulated lymphocytes", "from_the_text": "(§1) Ceramide levels can be directly measured by isolating peripheral blood lymphocytes from the patient. Thereafter the cells are centrifuged to eliminate the supernatant, and the lipids are removed from the cell pellet. The organic phase containing the ceramide can be assayed using the “DAG kinase assay” for phosphorylating the ceramide which is then evidenced by autoradiography [Cifone, M. G. et al., J. Exp. Med., 180(4): 1547-52].\nPeripheral blood lymphocytes were isolated according to the classical methodologies. The cells were incubated with L-carnitine (200 mcg/ml) or with isovaleryl L-carnitine for 30 min at 37° C., and afterwards with an anti-Fas monoclonal antibody for another 30 min. The cells were then centrifuged, eleminating the supernatant, and the cell pellet was delipidized. The organic phase (containing the ceramide) was assayed in the “DAG kinase assay” for phosphorylating ceramide which subsequently was evidenced by autoradiography.\nIt is known that the cells suitably stimulated (i.e. with Fas-L, inter-leukin-1, etc.) generate ceramide. An anti-Fas antibody was employed to increase the production of ceramide from a basal value (20 picomoles per 10^6 cells) to 81.6 picomoles per 10^6 cells."}, "Ceramide in the muscles": {"system": "Ceramide in the muscles", "experiment": "Muscle ceramide in patients with symptomatic neuro-myopathy (chronic fatigue syndrome)", "type": "in vivo, human", "details": "3 g per day oral, two months", "method": "Two patients affected by symptomatic neuro-myopathy (chronic fatigue syndrome) were treated with 3 g per clay of L-carnitine by oral route through two months. Ceramide was measured in the muscles before and after the administration."}, "[2]": {"system": "lymphocyte-associated ceramide", "experiment": "Lymphocyte-associated ceramide in hyperthyroidism patients treated with metimazole", "type": "in vivo, human", "details": "8 g per day oral, 4 weeks", "from_the_text": "Ceramide levels can be directly measured by isolating peripheral blood lymphocytes from the patient. Thereafter the cells are centrifuged to eliminate the supernatant, and the lipids are removed from the cell pellet. The organic phase containing the ceramide can be assayed using the “DAG kinase assay” for phosphorylating the ceramide which is then evidenced by autoradiography [Cifone, M. G. et al., J. Exp. Med., 180(4): 1547-52]. Four patients affected by hyperthyroidism who had been treated with metimazole (15 mg by oral route, daily) for more than eight months, were treated for 4 weeks with 8 g per day L-carnitine by oral route. The lymphocyte-associated ceramide was determinded before and after the treatment."}, "[3]": {"system": "lymphocyte-associated ceramide", "experiment": "Lymphocyte-associated ceramide in patients with hepato-splenomegaly due to viral hepatitis of C type", "type": "in vivo, human", "details": "4 g bolus intravenous", "from_the_text": "Ceramide levels can be directly measured by isolating peripheral blood lymphocytes from the patient. Thereafter the cells are centrifuged to eliminate the supernatant, and the lipids are removed from the cell pellet. The organic phase containing the ceramide can be assayed using the “DAG kinase assay” for phosphorylating the ceramide which is then evidenced by autoradiography [Cifone, M. G. et al., J. Exp. Med., 180(4): 1547-52]. Three patients with hepato-splenomegaly due to viral hepatitis of C type were treated with 4 g of L-carnitine bolus by intravenous route. The lymphocyte-associated ceramide was determined before and after 3 and 48 hours following the infusion."}, "[4]": {"system": "peripheral blood lymphocyte-associated ceramide", "experiment": "Peripheral blood lymphocyte-associated ceramide in patients with protein catabolism and lipidic depletion from tubercular infection", "type": "in vivo, human", "details": "8 g per day parenteral, two weeks", "from_the_text": "as §1\nFour patients affected by protein catabolism and lipidic depletion as a consequence of tubercular infection were treated for two weeks with 8 g per day L-carnitine by parenteral route.\nThe peripheral blood lymphocyte-associated ceramide was determined before and after the treatment."}}, "data": [{"compound": "C[N+](C)(C)C[C@H](O)CC(=O)[O-]", "note": "[L-carnitine]", "values": [{"measurement": "Ceramide", "setting": "[1]; 100 mcg/ml", "value": 7.3, "unit": "picomoles per 10^6 cells"}, {"measurement": "Effect on synthesis of ceramide in vitro", "setting": "[1]", "value": "inhibit the synthesis of ceramide in vitro"}, {"measurement": "Ceramide post-treatment", "setting": "Ceramide in the muscles; Patient 1, pre-treatment 76", "value": "28 picomoles per mg of proteins"}, {"measurement": "Ceramide post-treatment", "setting": "Ceramide in the muscles; Patient 2, pre-treatment 142", "value": "46 picomoles per mg of proteins"}, {"measurement": "Ceramide post-treatment", "setting": "[2]; Patient 1, pre-treatment 73", "value": 26, "unit": "picomoles/10^6 cells"}, {"measurement": "Ceramide post-treatment", "setting": "[2]; Patient 2, pre-treatment 45", "value": 27, "unit": "picomoles/10^6 cells"}, {"measurement": "Ceramide post-treatment", "setting": "[2]; Patient 3, pre-treatment 111", "value": 36, "unit": "picomoles/10^6 cells"}, {"measurement": "Ceramide post-treatment", "setting": "[2]; Patient 4, pre-treatment 69", "value": 18, "unit": "picomoles/10^6 cells"}, {"measurement": "Duration of the effect on ceramide levels", "setting": "[3]", "value": "remains at least for two days"}, {"measurement": "Effect of bolus on ceramide levels", "setting": "[3]; after 3 hours from the infusion", "value": "inhibited the increase of ceramide levels already after 3 hours"}, {"measurement": "Ceramide After 3 hrs", "setting": "[3]; Patient 1, pre-treatment 65", "value": 12, "unit": "picomoles/10^6 cells"}, {"measurement": "Ceramide After 48 hrs", "setting": "[3]; Patient 1, pre-treatment 65", "value": 31, "unit": "picomoles/10^6 cells"}, {"measurement": "Ceramide After 3 hrs", "setting": "[3]; Patient 2, pre-treatment 77", "value": 32, "unit": "picomoles/10^6 cells"}, {"measurement": "Ceramide After 48 hrs", "setting": "[3]; Patient 2, pre-treatment 77", "value": 21, "unit": "picomoles/10^6 cells"}, {"measurement": "Ceramide After 3 hrs", "setting": "[3]; Patient 3, pre-treatment 79", "value": 24, "unit": "picomoles/10^6 cells"}, {"measurement": "Ceramide After 48 hrs", "setting": "[3]; Patient 3, pre-treatment 79", "value": 23, "unit": "picomoles/10^6 cells"}, {"measurement": "Ceramide post-treatment", "setting": "[4]; Patient 1, pre-treatment 127", "value": 59, "unit": "picomoles/10^6 cells"}, {"measurement": "Ceramide post-treatment", "setting": "[4]; Patient 2, pre-treatment 265", "value": 77, "unit": "picomoles/10^6 cells"}, {"measurement": "Ceramide post-treatment", "setting": "[4]; Patient 3, pre-treatment 301", "value": 152, "unit": "picomoles/10^6 cells"}, {"measurement": "Ceramide post-treatment", "setting": "[4]; Patient 4, pre-treatment 78", "value": 54, "unit": "picomoles/10^6 cells"}]}, {"compound": "CC(C)CC(=O)O[C@H](CC(=O)[O-])C[N+](C)(C)C", "note": "[isovaleryl L-carnitine]", "values": [{"measurement": "Ceramide", "setting": "[1]; 50 mcg/ml", "value": 8.6, "unit": "picomoles per 10^6 cells"}, {"measurement": "Ceramide", "setting": "[1]; 100 mcg/ml", "value": 7.3, "unit": "picomoles per 10^6 cells"}, {"measurement": "Effect on synthesis of ceramide in vitro", "setting": "[1]", "value": "inhibit the synthesis of ceramide in vitro"}]}]}
